The record followed here is patent publication US20030203372A1, “Analysis method” (priority 2000, published 2003).

A short description of data set [1]: Hypoxia response of the referenced genes/sequences, summary in cross-reference Table 26. Type of data set: cell-based, human. Particulars: direction of expression change of the gene/sequence in response to hypoxia.
Data set [2] concerns primary human cell cultures (11 cell types). Briefly: Custom gene array, 11 human cell types in normoxia or hypoxia for 6 hr and 18 hr. Type of data set: cell-based. The protocol: Equivalent cultures of non-immortalized, non-transformed primary human cells of 10 distinct types, were cultured in either normoxia or were exposed to hypoxia for 6 hr and 18 hr, and gene expression changes were determined. […] Moreover, unlike the vast majority of information in the public domain relating to genes responsive to hypoxia, all of these cells were human and were cultured without any modifications following isolation from the human donors.
A non-primary cell type (#9) was used to represent neurons, since primary human neurons are difficult to source. Therefore a total of 11 cell types are compared. It should be noted that RNA from hepatocytes at the […] timepoint of hypoxia was not available for this work.
Each RNA sample was hybridised to duplicate or triplicate arrays, to ensure reproducible data, and was analysed using GeneSpring software. Data from replicate arrays were merged during analysis to generate mean values. Data normalisation was achieved per-array using the aforementioned list of control genes, such that differences in RNA labelling or hybridization due to experimental variation were corrected by referencing each gene to the mean value of the reference genes on the same array. Also, for each gene, expression values were obtained which represent the value in each experimental condition (e.g. macrophages 6 hr hypoxia) as compared to the median of value of that gene throughout the full range of experimental conditions (i.e. from all cell types). […] This is common in microarray data analysis.

As for Interleukin 8, in data set [1], the Hypoxia response entry was “Increase”.

In the case of Monocyte chemotactic protein 1, the Hypoxia response result in data set [1] was “Repression”.

With Osteopontin, the Hypoxia response result in data set [1] was “Increase”.

As for Vascular endothelial growth factor, the Hypoxia response entry in data set [1] is “Increase”.

p1G10: the mRNA expression level in data set [2] (cell type #1, HY (hypoxia) 6 hr) is 0.61; in data set [2] (cell type #1, HY (hypoxia) 18 hr) it was 1.52; in data set [2] (cell type #1, NO (normoxia)), 1.01; in data set [2] (cell type #2, HY (hypoxia) 6 hr), 1.76; in data set [2] (cell type #2, HY (hypoxia) 18 hr), 1.65; in data set [2] (cell type #2, NO (normoxia)), 1.69. For the same substance, the mRNA expression level in data set [2] (cell type #3, HY (hypoxia) 6 hr) is 3.58; in data set [2] (cell type #3, HY (hypoxia) 18 hr), 2.49; in data set [2] (cell type #3, NO (normoxia)), 2.01; in data set [2] (cell type #4, HY (hypoxia) 6 hr) it was 1.13; in data set [2] (cell type #4, HY (hypoxia) 18 hr), 0.99; in data set [2] (cell type #4, NO (normoxia)), 1.32. Further, the mRNA expression level in data set [2] (cell type #5, HY (hypoxia) 6 hr) amounted to 0.65; in data set [2] (cell type #5, NO (normoxia)), 0.44; in data set [2] (cell type #6, HY (hypoxia) 6 hr) it was 0.62; in data set [2] (cell type #6, NO (normoxia)), 0.44.
